In paper PMC6979384, “Characterization of the plant homeodomain (PHD) reader family for their histone tail interactions” (Epigenetics & Chromatin, 2020):

Legend:
Assay in all cases: Histone peptide microarray
Assay type in all cases: binding, human
AIRE (PP) = conditions: GST-tagged AIRE (PP)
In short: (§1)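 Binding read as mean relative signal from 4 replicates; microarray held 293 synthetic histone peptides with single or combinatorial PTMs. Each GST-tagged PHD reader was applied at 0.5 μM using the optimized Petell protocol.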

BAZ2B = conditions: GST-tagged BAZ2B
In short: as §1

BPTF (PB) = conditions: GST-tagged BPTF (PB = PHD + Bromodomain)
In short: as §1

CHD4 (PPCC) = conditions: GST-tagged CHD4 (PPCC = Dual PHD + Dual Chromodomain)
In short: as §1

CHD5 (PCC) = conditions: GST-tagged CHD5 (PCC = PHD + Dual Chromodomain)
In short: as §1

CHD5 (PPCC) = conditions: GST-tagged CHD5 (PPCC = Dual PHD + Dual Chromodomain)
In short: as §1

DIDO1 = conditions: GST-tagged DIDO1
In short: as §1

DPF2 (PPC2W2) = conditions: GST-tagged DPF2 (PPC2W2 = Dual PHD + C2W2-type Zn-finger)
In short: as §1

ING1 = conditions: GST-tagged ING1
In short: as §1

ING2 = conditions: GST-tagged ING2
In short: as §1

ING3 = conditions: GST-tagged ING3
In short: as §1

ING4 = conditions: GST-tagged ING4
In short: as §1

ING5 = conditions: GST-tagged ING5
In short: as §1

KDM4C (TTP) = conditions: GST-tagged KDM4C (TTP = Tandem Tudor domain + PHD)
In short: as §1

KDM5A (1) = conditions: GST-tagged KDM5A (1)
In short: as §1

KDM5A (3) = conditions: GST-tagged KDM5A (3)
In short: as §1

KDM5B (1) = conditions: GST-tagged KDM5B (1)
In short: as §1

KDM5B (3) = conditions: GST-tagged KDM5B (3)
In short: as §1

KDM7A = conditions: GST-tagged KDM7A
In short: as §1

MLL5 = conditions: GST-tagged MLL5
In short: as §1

MORC3 (CW) = conditions: GST-tagged MORC3 (CW = CW-type Zn-finger)
In short: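 GST-tagged PHD finger readers were expressed, purified and applied at 0.5 μM to a microarray of 293 synthetic histone peptides carrying single or combinatorial PTMs, using an optimized protocol. Binding signals are averages with standard deviation from 4 replicates.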

PHF13 = conditions: GST-tagged PHF13
In short: as §1

PHF21A = conditions: GST-tagged PHF21A
In short: as §1

PHF23 = conditions: GST-tagged PHF23
In short: as §1

PHF2 = conditions: GST-tagged PHF2
In short: as §1

PHF8 = conditions: GST-tagged PHF8
In short: as §1

PHRF1 (RP) = conditions: GST-tagged PHRF1 (RP)
In short: as §1

RAG2 = conditions: GST-tagged RAG2
In short: as §1

SP140L = conditions: GST-tagged SP140L
In short: as §1

TAF3 = conditions: GST-tagged TAF3
In short: as §1

TRIM66 (PB) = conditions: GST-tagged TRIM66 (PB = PHD + Bromodomain)
In short: as §1

[1] = sheet Array Heatmap, each array performed twice, total n = 4
[2] = histone peptide array, arrays performed twice, n of 4

H3K4me3 + K18ac: H3 1-20 was tested, and the “Array Heatmap signal (histone peptide microarray)” value (AIRE (PP); [1]) was 0.4183, the “Array Heatmap signal (histone peptide microarray)” value (BAZ2B; [1]) was 0.4486 and the “Array Heatmap signal (histone peptide microarray)” value (BPTF (PB); [1]) was 0.7125. The “Array Heatmap signal (histone peptide microarray)” value (CHD4 (PPCC); [1]) was 0.6241, the “Array Heatmap signal (histone peptide microarray)” value (CHD5 (PCC); [1]) was 0.8106 and the “Array Heatmap signal (histone peptide microarray)” value (CHD5 (PPCC); [1]) was 0.5532. For the same substance, the “Array Heatmap signal (histone peptide microarray)” value (DIDO1; [1]) was 0.9924, the “Array Heatmap signal (histone peptide microarray)” value (DPF2 (PPC2W2); [1]) was 0.7175 and the “Array Heatmap signal (histone peptide microarray)” value (ING1; [1]) was 1. The “Array Heatmap signal (histone peptide microarray)” value (ING2; [1]) was 0.9902, the “Array Heatmap signal (histone peptide microarray)” value (ING3; [1]) was 0.7492 and the “Array Heatmap signal (histone peptide microarray)” value (ING4; [1]) was 0.674. The “Array Heatmap signal (histone peptide microarray)” value (ING5; [1]) was 0.4874, the “Array Heatmap signal (histone peptide microarray)” value (KDM4C (TTP); [1]) was 0.6519 and the “Array Heatmap signal (histone peptide microarray)” value (KDM5A (1); [1]) was 0.4457. The “Array Heatmap signal (histone peptide microarray)” value (KDM5A (3); [1]) was 0.9747, the “Array Heatmap signal (histone peptide microarray)” value (KDM5B (1); [1]) was 0.7261 and the “Array Heatmap signal (histone peptide microarray)” value (KDM5B (3); [1]) was 0.8599. The “Array Heatmap signal (histone peptide microarray)” value (KDM7A; [1]) was 0.4973, the “Array Heatmap signal (histone peptide microarray)” value (MLL5; [1]) was 0.8685 and the “Array Heatmap signal (histone peptide microarray)” value (MORC3 (CW); [1]) was 0.8723. The “Array Heatmap signal (histone peptide microarray)” value (PHF13; [1]) was 0.813, the “Array Heatmap signal (histone peptide microarray)” value (PHF21A; [1]) was 0.4388 and the “Array Heatmap signal (histone peptide microarray)” value (PHF23; [1]) was 1. The “Array Heatmap signal (histone peptide microarray)” value (PHF2; [1]) was 1, the “Array Heatmap signal (histone peptide microarray)” value (PHF8; [1]) was 0.6791 and the “Array Heatmap signal (histone peptide microarray)” value (PHRF1 (RP); [1]) was 0.7444. The “Array Heatmap signal (histone peptide microarray)” value (RAG2; [1]) was 0.6973, the “Array Heatmap signal (histone peptide microarray)” value (SP140L; [1]) was 0.3614 and the “Array Heatmap signal (histone peptide microarray)” value (TAF3; [1]) was 0.7205. The “Array Heatmap signal (histone peptide microarray)” value (TRIM66 (PB); [1]) was 0.639.
H4K5ac: H4 1-23 [Peptide H4K5ac] was tested, and the “Array Heatmap signal, AIRE (PP)” value (AIRE (PP); [2]) was 0.3943, the “Array Heatmap signal, BAZ2B” value (BAZ2B; [2]) was 0.4414 and the “Array Heatmap signal, BPTF (PB)” value (BPTF (PB); [2]) was 0.3451. For the same substance, the “Array Heatmap signal, CHD4 (PPCC)” value (CHD4 (PPCC); [2]) was 0.5634, the “Array Heatmap signal, CHD5 (PCC)” value (CHD5 (PCC); [2]) was 0.7301 and the “Array Heatmap signal, CHD5 (PPCC)” value (CHD5 (PPCC); [2]) was 0.5269. The “Array Heatmap signal, DIDO1” value (DIDO1; [2]) was 0.6701, the “Array Heatmap signal, DPF2 (PPC2W2)” value (DPF2 (PPC2W2); [2]) was 0.6533 and the “Array Heatmap signal, ING1” value (ING1; [2]) was 0.5387. For the same substance, the “Array Heatmap signal, ING2” value (ING2; [2]) was 0.5879, the “Array Heatmap signal, ING3” value (ING3; [2]) was 0.4744 and the “Array Heatmap signal, ING4” value (ING4; [2]) was 0.4388. For the same substance, the “Array Heatmap signal, ING5” value (ING5; [2]) was 0.3447, the “Array Heatmap signal, KDM4C (TTP)” value (KDM4C (TTP); [2]) was 0.4448 and the “Array Heatmap signal, KDM5A (1)” value (KDM5A (1); [2]) was 0.4372. The “Array Heatmap signal, KDM5A (3)” value (KDM5A (3); [2]) was 0.423, the “Array Heatmap signal, KDM5B (1)” value (KDM5B (1); [2]) was 0.6329 and the “Array Heatmap signal, KDM5B (3)” value (KDM5B (3); [2]) was 0.4665. For the same substance, the “Array Heatmap signal, KDM7A” value (KDM7A; [2]) was 0.3174, the “Array Heatmap signal, MLL5” value (MLL5; [2]) was 0.5676 and the “Array Heatmap signal, MORC3 (CW)” value (MORC3 (CW); [2]) was 0.3392. For the same substance, the “Array Heatmap signal, PHF13” value (PHF13; [2]) was 0.6012, the “Array Heatmap signal, PHF21A” value (PHF21A; [2]) was 0.436 and the “Array Heatmap signal, PHF23” value (PHF23; [2]) was 0.5421. For the same substance, the “Array Heatmap signal, PHF2” value (PHF2; [2]) was 0.5353, the “Array Heatmap signal, PHF8” value (PHF8; [2]) was 0.3344 and the “Array Heatmap signal, PHRF1 (RP)” value (PHRF1 (RP); [2]) was 0.4272. The “Array Heatmap signal, RAG2” value (RAG2; [2]) was 0.2578, the “Array Heatmap signal, SP140L” value (SP140L; [2]) was 0.3459 and the “Array Heatmap signal, TAF3” value (TAF3; [2]) was 0.3079. For the same substance, the “Array Heatmap signal, TRIM66 (PB)” value (TRIM66 (PB); [2]) was 0.6888.
